Results: publication PMC5078989, “Targeted inhibition of the COP9 signalosome for treatment of cancer” (Nature Communications, 2016)
pEC50: −log10 of the molar value.

Test system: panel of cancer cell lines
Assay: Cell viability (CellTiter-Glo) dose-response across cancer cell line panel;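 further: after 72 h compound incubation with CellTiter-Glo ATP readout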
Type: cell-based, human
Details: Homo sapiens
Source text: Next, we explored the effect of CSN5 inhibition on the viability of cancer cells. To obtain a comprehensive picture, we generated dose–response curves with a CSN5 inhibitor across more than 500 cancer cell lines in a previously described standardized setting[47] (Supplementary Data 1).
A standardized CellTiter-Glo Assay (Promega #G7570) based on the quantification of ATP was applied according to the manufacturer's protocol to measure the amount of viable cells in culture. In brief, cells were seeded into 384-well plates at optimal density for each cell line. After 4 h, compounds were added at different concentrations in growth medium and incubated for another 72 h in a humidifying chamber at 37 °C and 5% CO2. […] EC50 values were calculated from the plot of percentage of inhibition versus inhibitor concentration using the nonlinear regression analysis software Origin 7.5SR6 (OriginLab Corp.).

## COCc1ccccc1NCc1ccc([C@@H]2[C@H](O)CCCc3cncn32)c(-c2ccccc2Cl)c1 [CSN5i-2e, (5R,6R)-5-(2′-chloro-5-(((2-(methoxymethyl)phenyl)amino)methyl)-[1,1′-biphenyl]-2-yl)-6,7,8,9-tetrahydro-5H-imidazo[1,5-a]azepin-6-ol]
HCC-1833 cells
  pEC50: 4.98
HCT-15, HCT-15 cells
  pEC50: 5.16
HD-MY-Z cells
  pEC50: 5.46
HEC-50B, HEC-50B cells
  pEC50: 4.89
HEC-108 cells
  pEC50: 4.83
HEC-151 cells
  pEC50: 4.96
HEC-265 cells
  pEC50: 4.85
HEL 92.1.7, HEL 92.1.7 cells
  pEC50: 5.14
HEL, HEL cells
  pEC50: 5.16
HEY A8, Hey-A8 cells
  pEC50: 4.89
HL-60, HL-60 cells
  pEC50: 4.80
HLC-1 cells
  pEC50: 4.94
HLE, HLE cells
  pEC50: 4.81
HLF, HLF cells
  pEC50: < 4.52
HMC-1-8 cells
  pEC50: 4.81
HPBALL, HPB-ALL cells
  pEC50: 4.85
HRT-18, HRT-18 cells
  pEC50: 5.04
HSC-2, HSC-2 cells
  pEC50: 4.62
HSC-3, HSC-3 cells
  pEC50: 4.90
HSC-4, HSC-4 cells
  pEC50: 5.00
HT-29, HT-29 cells
  pEC50: 4.91
Hep 3B2.1-7 cells
  pEC50: 4.95
Hep3B, Hep3B cells
  pEC50: 4.85
Hs 294T, Hs 294T cells
  pEC50: 4.93
Hs766T, Hs 766T cells
  pEC50: 4.62
Hs 852.T cells
  pEC50: 4.81
Hs 936.T cells
  pEC50: 4.76
Hs 944.T cells
  pEC50: 4.81
HuG1-N cells
  pEC50: 4.97
HuP-T3, HUP-T3 cells
  pEC50: 4.62
HuP-T4, HUP-T4 cells
  pEC50: 4.96
Huh-7, HuH-7 cells
  pEC50: 5.04
IGR-37, IGR-37 cells
  pEC50: 4.75
IGR-39, IGR-39 cells
  pEC50: 4.97
IGROV-1, IGROV1 cells
  pEC50: 4.91
IPC-298, IPC-298 cells
  pEC50: 4.99
Ishikawa, Ishikawa cells
  pEC50: 5.02
J82, J82 cells
  pEC50: < 4.52
JHH7, JHH-7 cells
  pEC50: 4.79
JHH-4, JHH-4 cells
  pEC50: 4.79
JHOM-1 cells
  pEC50: 5.05
JHOS-2 cells
  pEC50: < 4.52
JHUEM-2 cells
  pEC50: 4.81
JIMT-1, JIMT-1 cells
  pEC50: 4.88
JVM-2, JVM-2 cells
  pEC50: 4.89
K029AX cells
  pEC50: 4.77
KARPAS-422, KARPAS-422 cells
  pEC50: 4.90
KATO III, KATO III cells
  pEC50: 5.00
KBM-7, KBM-7 cells
  pEC50: 5.08
KE-97, KE-97 cells
  pEC50: 5.10
KLE, KLE cells
  pEC50: 4.90
KMM-1, KMM-1 cells
  pEC50: 4.98
KMRC-1, KMRC-1 cells
  pEC50: 4.75
KMRC-20 cells
  pEC50: 4.73
KMS-11, KMS-11 cells
  pEC50: 4.54
KNS-62, KNS-62 cells
  pEC50: 4.81
KO52 cells
  pEC50: 4.74
KP-1N cells
  pEC50: 4.82
KS-1 cells
  pEC50: 4.81
KU-19-19, KU-19-19 cells
  pEC50: 4.80
KURAMOCHI cells
  pEC50: 4.98
KYSE-70, KYSE-70 cells
  pEC50: 4.98
KYSE-150, KYSE-150 cells
  pEC50: 4.97
KYSE-180, KYSE-180 cells
  pEC50: 4.85
KYSE-410, KYSE-410 cells
  pEC50: 4.82
Kasumi-3, Kasumi3 cells
  pEC50: 4.88
Kasumi-6 cells
  pEC50: 5.19
L3.3 cells
  pEC50: 4.70
L-363, L-363 cells
  pEC50: 5.02
L-428, L-428 cells
  pEC50: 4.93
LC-1F cells
  pEC50: 4.79
LCLC-103H, LCLC-103H cells
  pEC50: 5.05
LIM1899 cells
  pEC50: 4.99
LIM2099 cells
  pEC50: 4.94
LIM2405 cells
  pEC50: 5.00
LIM2550 cells
  pEC50: 5.20
LMSU cells
  pEC50: 5.12
LN-18, LN-18 cells
  pEC50: 4.89
LN-229, LN-229 cells
  pEC50: 5.09
LOU-NH91, LOU-NH91 cells
  pEC50: 4.95
LOX IMVI, LOX IMVI cells
  pEC50: 5.04
LP-1, LP-1 cells
  pEC50: 4.92
LS180, LS 180 cells
  pEC50: 4.98
LS-513, LS513 cells
  pEC50: 5.09
LUDLU-1, LUDLU-1 cells
  pEC50: < 4.52
Li-7, Li-7 cells
  pEC50: 4.62
Lu-65, LU65 cells
  pEC50: 4.90
Lu-99, LU99 cells
  pEC50: 5.01
M-07e, M-07e cells
  pEC50: 4.80
MCAS cells
  pEC50: 4.90
MCC14/2 cells
  pEC50: 5.00
MDA-MB-157, MDA-MB-157 cells
  pEC50: 4.83
MDA-MB-175-VII, MDA-MB-175-VII cells
  pEC50: 4.70
MDA-MB-231, MDA-MB-231 cells
  pEC50: 4.82
MDA-MB-415, MDA-MB-415 cells
  pEC50: 4.87
MDA-MB-435S, MDA-MB-435S cells
  pEC50: 4.92
MDA-MB-436, MDA-MB-436 cells
  pEC50: 5.00
MDA-MB-453, MDA-MB-453 cells
  pEC50: 5.19
MDA-MB-468, MDA-MB-468 cells
  pEC50: 4.97
MDST8, MDST8 cells
  pEC50: 4.95
ME-180, ME180 cells
  pEC50: 4.92
MEL-HO cells
  pEC50: 4.96
MEL-JUSO, MEL-JUSO cells
  pEC50: 4.74
MES-SA, MES-SA cells
  pEC50: 4.90
MFE-280, MFE-280 cells
  pEC50: 4.97
MFE-296, MFE-296 cells
  pEC50: 4.98
MFM-223, MFM223 cells
  pEC50: 4.76
MINO, Mino cells
  pEC50: 5.10
MKN-1, MKN1 cells
  pEC50: 5.02
MKN-45, MKN-45 cells
  pEC50: 4.57
ML-2, ML-2 cells
  pEC50: 5.21
MM127 cells
  pEC50: 5.19
MM138 cells
  pEC50: 4.98
MM253 cells
  pEC50: 4.58
MM370 cells
  pEC50: 4.64
MM383 cells
  pEC50: 4.95
MM386 cells
  pEC50: 4.59
MM415 cells
  pEC50: 4.87
MM426 cells
  pEC50: 4.61
MM466 cells
  pEC50: 4.61
MM473, MM473 cells
  pEC50: 4.98
MM485 cells
  pEC50: 4.95
MM537 cells
  pEC50: 4.85
MM576 cells
  pEC50: 4.80
MM603 cells
  pEC50: 5.01
MOG-G-CCM cells
  pEC50: 4.96
MOLM-13, MOLM-13 cells
  pEC50: 5.18
MOLP-8, MOLP-8 cells
  pEC50: 5.16
MOLT-16, MOLT-16 cells
  pEC50: 5.27
